Target: H3 receptors (Cavia porcellus, UniProt Q9JI35)
Test: biochemical
Procedure: General Procedure for H3-Receptor Binding Assay
The source of the H3 receptors in this experiment was guinea pig brain. The animals weighed 400-600 g. The brain tissue was homogenized with a solution of 50 mM Tris, pH 7.5. The final concentration of tissue in the homogenization buffer was 10% w/v. The homogenates were centrifuged at 1,000×g for 10 min. in order to remove clumps of tissue and debris. The resulting supernatants were then centrifuged at 50,000×g for 20 min. in order to sediment the membranes, which were next washed three times in homogenization buffer (50,000×g for 20 min. each). The membranes were frozen and stored at −70° C. until needed.
All compounds to be tested were dissolved in DMSO and then diluted into the binding buffer (50 mM Tris, pH 7.5) such that the final concentration was 2 μg/ml with 0.1% DMSO. Membranes were then added (400 μg of protein) to the reaction tubes. The reaction was started by the addition of 3 nM [^3H]R-α-methyl histamine (8.8 Ci/mmol) or 3 nM [^3H]N^α-methyl histamine (80 Ci/mmol) and continued under incubation at 30° C. for 30 min. Bound ligand was separated from unbound ligand by filtration, and the amount of radioactive ligand bound to the membranes was quantitated by liquid scintillation spectrometry.

Chain of H3 receptors (Q9JI35 whole entry): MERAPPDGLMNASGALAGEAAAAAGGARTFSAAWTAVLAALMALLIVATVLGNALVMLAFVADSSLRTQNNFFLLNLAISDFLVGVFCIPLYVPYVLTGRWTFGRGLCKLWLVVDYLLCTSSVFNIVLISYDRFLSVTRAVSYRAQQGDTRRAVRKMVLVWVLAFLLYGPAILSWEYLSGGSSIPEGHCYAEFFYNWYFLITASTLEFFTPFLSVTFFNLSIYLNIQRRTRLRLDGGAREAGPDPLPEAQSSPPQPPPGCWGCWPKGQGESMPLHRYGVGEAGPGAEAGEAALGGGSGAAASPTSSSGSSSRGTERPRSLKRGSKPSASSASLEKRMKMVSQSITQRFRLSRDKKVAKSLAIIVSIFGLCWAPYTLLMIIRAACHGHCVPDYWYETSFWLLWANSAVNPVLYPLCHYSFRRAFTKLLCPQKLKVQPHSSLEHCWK

Ki: 1 nM
Structure (SMILES): Fc1ccc2c(c1)nc(-c1ccccn1)n2-c1ccc(OCCCN2CCCCC2)cc1 [Example 1EE]

— patent US7482468B2, “Imidazole and benzimidazole derivatives useful as histamine H3 antagonists” (Schering Corporation, priority 2005, dated 2009)
